Reference: US6982271B1, “Tropane analogs” (Georgetown University, priority 1999, dated 2006)

Experiments:
Type in all cases: cell-based
[1] = target: serotonin transporter (5-HTT) (Homo sapiens, UniProt P31645); test: [3H]5-HT uptake inhibition at the serotonin transporter; settings: for 5-HT/DA ratio: ratio of uptake Ki, 5-HT vs DA; for Ki: read-out: [3H]5-HT uptake, Ki ± SE; for higher activity at 5-HTT vs. DAT: selectivity 5-HTT vs DAT
From the text: (§1) These novel ligands have been tested for their binding affinity at the DAT as well as for the inhibition of reuptake of NE, 5-HT, and DA at their specific transporters.

[2] = target: norepinephrine transporter (NET) (Homo sapiens, UniProt P23975); test: [3H]NE uptake inhibition at the norepinephrine transporter; settings: for NE/5-HT ratio / NE/DA ratio: ratio of uptake Ki; for NE/5-HT ratio: NE vs 5-HT; for NE/DA ratio: NE vs DA; for Ki: read-out: [3H]NE uptake, Ki ± SE
Chain of norepinephrine transporter (NET) (P23975 whole entry, species assumed): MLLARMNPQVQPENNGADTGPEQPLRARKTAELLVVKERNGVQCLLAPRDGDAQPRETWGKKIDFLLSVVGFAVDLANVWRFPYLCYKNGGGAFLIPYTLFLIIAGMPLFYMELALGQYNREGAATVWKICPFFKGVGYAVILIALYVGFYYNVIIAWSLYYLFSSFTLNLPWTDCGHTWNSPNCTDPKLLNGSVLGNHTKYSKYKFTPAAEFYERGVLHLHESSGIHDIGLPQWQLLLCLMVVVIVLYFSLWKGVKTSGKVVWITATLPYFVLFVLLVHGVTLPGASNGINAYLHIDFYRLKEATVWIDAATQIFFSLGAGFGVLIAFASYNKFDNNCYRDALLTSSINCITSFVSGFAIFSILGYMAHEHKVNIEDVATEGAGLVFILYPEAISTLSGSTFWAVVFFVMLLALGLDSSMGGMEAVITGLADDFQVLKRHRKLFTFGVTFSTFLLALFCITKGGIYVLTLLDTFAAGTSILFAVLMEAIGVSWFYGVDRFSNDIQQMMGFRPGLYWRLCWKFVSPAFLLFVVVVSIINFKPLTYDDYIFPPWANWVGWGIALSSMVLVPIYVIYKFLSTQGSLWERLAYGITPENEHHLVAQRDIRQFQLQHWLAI
From the text: as §1

[3] = target: dopamine transporter (DAT) (Homo sapiens, UniProt Q01959); test: [3H]DA uptake inhibition at the dopamine transporter; settings: read-out: [3H]DA uptake, Ki ± SE
Chain of dopamine transporter (DAT) (Q01959 whole entry, species assumed): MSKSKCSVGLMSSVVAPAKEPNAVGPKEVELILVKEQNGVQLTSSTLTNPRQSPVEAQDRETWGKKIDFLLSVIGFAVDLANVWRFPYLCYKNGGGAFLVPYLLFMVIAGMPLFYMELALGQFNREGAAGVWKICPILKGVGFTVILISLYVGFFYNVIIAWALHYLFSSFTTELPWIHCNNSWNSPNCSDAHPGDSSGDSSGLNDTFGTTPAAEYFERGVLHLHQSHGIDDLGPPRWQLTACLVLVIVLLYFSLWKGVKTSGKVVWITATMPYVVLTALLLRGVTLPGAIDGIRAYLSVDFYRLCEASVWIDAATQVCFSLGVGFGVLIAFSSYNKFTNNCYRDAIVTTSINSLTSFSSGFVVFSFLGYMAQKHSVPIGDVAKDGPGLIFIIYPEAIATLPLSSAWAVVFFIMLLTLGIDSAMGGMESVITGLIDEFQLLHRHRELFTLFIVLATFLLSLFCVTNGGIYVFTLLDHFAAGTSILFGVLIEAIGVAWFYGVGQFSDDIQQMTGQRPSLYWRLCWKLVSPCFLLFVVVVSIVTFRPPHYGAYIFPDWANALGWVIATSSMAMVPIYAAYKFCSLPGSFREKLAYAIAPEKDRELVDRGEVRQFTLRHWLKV
From the text: as §1

Chain of serotonin transporter (5-HTT) (P31645 whole entry, species assumed): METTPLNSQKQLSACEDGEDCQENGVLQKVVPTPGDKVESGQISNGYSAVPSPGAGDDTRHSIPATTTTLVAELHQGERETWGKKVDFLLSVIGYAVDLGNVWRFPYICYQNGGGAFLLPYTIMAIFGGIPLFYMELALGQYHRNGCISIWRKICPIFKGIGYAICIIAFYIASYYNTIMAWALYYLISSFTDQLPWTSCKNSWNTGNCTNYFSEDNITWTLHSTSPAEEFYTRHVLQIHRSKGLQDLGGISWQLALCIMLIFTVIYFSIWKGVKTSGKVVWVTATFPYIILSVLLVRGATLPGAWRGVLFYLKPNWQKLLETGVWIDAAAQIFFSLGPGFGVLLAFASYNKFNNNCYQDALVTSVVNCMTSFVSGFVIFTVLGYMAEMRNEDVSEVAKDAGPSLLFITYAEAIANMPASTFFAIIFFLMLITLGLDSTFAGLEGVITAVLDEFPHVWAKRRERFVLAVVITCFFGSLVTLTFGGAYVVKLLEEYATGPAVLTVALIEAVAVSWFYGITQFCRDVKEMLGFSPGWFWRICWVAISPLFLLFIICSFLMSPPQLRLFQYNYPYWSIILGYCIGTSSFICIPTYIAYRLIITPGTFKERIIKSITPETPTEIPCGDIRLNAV

| Compound | 5-HT/DA ratio [1] | Ki [1] | NE/5-HT ratio [2] | NE/DA ratio [2] | Ki [2] | Ki at the 5-HTT higher than at the NET ([2]; selectivity NET vs 5-HTT) | Ki at the DAT higher than at the NET ([2]; selectivity NET vs DAT) | Ki [3] | activity at all three transporters ([2]; NET, 5-HTT and DAT) | higher activity at 5-HTT vs. DAT [1] | higher activity at 5-HTT vs. the NET ([1]; selectivity 5-HTT vs NET) | decrease of norepinephrine reuptake activity vs. 5a ([2]; fluoro substituent, 5d vs. 5a) |
| --- | --- | --- | --- | --- | --- | --- | --- | --- | --- | --- | --- | --- |
| COC(=O)C1C2CC3CCC1N3CC2=Cc1ccccc1 (single isomer, unassigned) [5a] | 2.36 | 1140 ± 70 nM | 0.05 | 0.11 | 53 ± 16.1 nM | 20 fold | 9 fold | 481 ± 10.8 nM | – | – | – | – |
| COC(=O)C1C2CC3CCC1N3CC2=Cc1ccccc1 (single isomer, unassigned) [compound 6] | 1.48 | 7480 ± 250 nM | 0.2 | 0.3 | 1530 ± 150 nM | – | – | 5070 ± 310 nM | only weakly active | – | – | – |
| COC(=O)C1C2CC3CCC1N3CC2=Cc1ccc(Cl)c(Cl)c1 (stereo not shown) [5b] | 0.01 | 19.8 ± 0.5 nM | 50.6 | 0.52 | 1000 ± 280 nM | – | – | 1920 ± 260 nM | – | about 100 fold | about 50 fold | – |
| COC(=O)C1C2CC3CCC1N3CC2=Cc1ccc(OC)cc1 (stereo not shown) [5c] | 0.02 | 55.7 ± 3.8 nM | 3.37 | 0.06 | 187 ± 4.6 nM | – | – | 3130 ± 160 nM | – | 50 fold | – | – |
| COC(=O)C1C2CC3CCC1N3CC2=Cc1ccc(F)cc1 (stereo not shown) [5d] | 0.05 | 335 ± 45.5 nM | 1.74 | 0.09 | 584 ± 163 nM | – | – | 6620 ± 460 nM | – | – | – | about 10 factor |
| COC(=O)C1C2CC3CCC1N3CC2=Cc1cccc2ccccc12 (stereo not shown) [5e] | 0.01 | 121 ± 3.4 nM | 44.5 | 0.55 | 5370 ± 580 nM | – | – | 9720 ± 700 nM | – | – | – | – |
| COC(=O)C1C2CC3CCC1N3CC2=Cc1ccco1 (stereo not shown) [5f] | 1.82 | 3680 ± 190 nM | 0.03 | 0.05 | 111 ± 12.7 nM | – | – | 2020 ± 190 nM | – | – | – | – |
| COC(=O)C1C2CC3CCC1N3CC2=Cc1ccoc1 (stereo not shown) [5g] | 0.26 | 498 ± 65.5 nM | 0.33 | 0.09 | 164 ± 2.8 nM | – | – | 1880 ± 10 nM | – | – | – | – |
